Assay [1] concerns the target T1, wild-type Androgen Receptor (AR-wt) (Homo sapiens, UniProt P10275).
T1 construct: expressed in transfected cells; host or cells: LNCaP AR (cs) cells with ARE firefly luciferase lentiviral construct
T1 sequence (P10275 1-920): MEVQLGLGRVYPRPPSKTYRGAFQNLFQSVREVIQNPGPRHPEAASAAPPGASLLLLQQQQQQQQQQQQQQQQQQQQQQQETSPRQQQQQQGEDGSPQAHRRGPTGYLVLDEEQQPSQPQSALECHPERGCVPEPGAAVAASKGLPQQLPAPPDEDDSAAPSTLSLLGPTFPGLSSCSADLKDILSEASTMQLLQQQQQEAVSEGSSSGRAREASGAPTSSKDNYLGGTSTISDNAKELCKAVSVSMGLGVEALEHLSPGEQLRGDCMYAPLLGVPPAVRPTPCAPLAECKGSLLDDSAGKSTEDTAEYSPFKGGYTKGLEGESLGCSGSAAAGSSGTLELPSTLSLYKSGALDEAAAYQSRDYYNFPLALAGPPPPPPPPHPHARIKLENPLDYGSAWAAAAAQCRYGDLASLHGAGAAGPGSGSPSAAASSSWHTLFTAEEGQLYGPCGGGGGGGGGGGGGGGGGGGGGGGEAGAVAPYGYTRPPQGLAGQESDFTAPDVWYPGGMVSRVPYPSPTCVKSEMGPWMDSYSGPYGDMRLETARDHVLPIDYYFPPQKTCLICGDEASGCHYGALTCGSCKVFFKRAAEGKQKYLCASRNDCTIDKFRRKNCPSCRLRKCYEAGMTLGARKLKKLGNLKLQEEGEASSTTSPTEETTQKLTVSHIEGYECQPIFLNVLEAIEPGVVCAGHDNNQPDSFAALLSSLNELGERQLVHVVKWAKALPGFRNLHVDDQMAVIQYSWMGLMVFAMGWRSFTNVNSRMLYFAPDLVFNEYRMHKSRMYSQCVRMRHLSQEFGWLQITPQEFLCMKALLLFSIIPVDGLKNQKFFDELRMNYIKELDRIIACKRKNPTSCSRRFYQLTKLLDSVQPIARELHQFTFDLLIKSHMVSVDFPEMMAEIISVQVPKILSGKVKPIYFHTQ
Nature of the assay: LNCaP-AR-wt AG: ARE luciferase reporter assay, agonist mode. In kind it is cell-based. The settings on record: maximum % stimulation (agonist response), % of 1 μM R-1881 max. On the procedure: (§1) A stable pooled-population cell line was generated using puromycin (Life Technologies) selection at 1:10,000 v/v. The protocol below was used for both cell lines and for testing of the compounds of Formula (I) of the present invention.
(§2) LNCaP cells were grown to about 80% confluence, media removed and cells rinsed in Hank's balanced salt solution prior to separation from the plate with 0.05% Trypsin EDTA. Cells were lifted and trypsin negated in complete CSS (charcoal stripped serum) culture media. […] Agonist challenge was at 400 pM for WT assay and 600 pM for F876L assay. Plates containing cells and compounds herein were incubated for a further 20-24 hours at 37° C., 5% CO2 before addition of 40 μL/well of Steady-Glo Luciferase Assay System Reagent (Promega# E2520). After 1 h, plates were read for luminescence on a BMG Pherastar.
(§3) EC/IC50 calculations were achieved utilizing calculated RLU data and data fitting macros. Data were fit using least-squares methods to the following formula: […]
(§4) As used herein: pIC50 is defined as—Log10(IC50 expressed in [Molar]). pEC50 is defined as—Log10(EC50 expressed in [Molar]). […] LNCaP-AR-wt ANT refers to the reporter assay using LNCaP cells stably transfected with the Androgen Response Element Firefly Luciferase lentiviral construct and wild-type Androgen Receptor (AR-wt) in Antagonist mode. LNCaP-AR-wt AG refers to the reporter assay using LNCaP cells stably transfected with the Androgen Response Element Firefly Luciferase lentiviral construct and wild-type Androgen Receptor (AR-wt) in Agonist mode. LNCaP-AR-F876L ANT refers to the reporter assay using LNCaP cells stably transfected with the Androgen Response Element Firefly Luciferase lentiviral construct and F876L mutant Androgen Receptor (AR-F876L) in Antagonist mode. LNCaP-AR-F876L AG refers to the reporter assay using LNCaP cells stably transfected with the Androgen Response Element Firefly Luciferase lentiviral construct and F876L mutant Androgen Receptor (AR-F876L) in Agonist mode.
Background: In a reporter assay the amount or activity of a reporter protein is the signal.

Assay [2] deals with T2, F876L mutant Androgen Receptor (AR-F876L) (Homo sapiens, UniProt P10275, F877L).
T2 construct: expressed in transfected cells; host or cells: LNCaP F876L cells with ARE firefly luciferase lentiviral construct
T2 sequence (P10275 1-920 F877L): T1 sequence (P10275 1-920) with F877L
Nature of the assay: LNCaP-AR-F876L AG: ARE luciferase reporter assay, agonist mode. The settings on record: maximum % stimulation (agonist response), % of 1 μM R-1881 max. The assay is classed as cell-based. The method, then:
as §1, §2, §3, §4

Each structure is given as a SMILES string. Positions count from the first letter of the chain named.

As to `N#Cc1ncc(N2C(=O)C3(CCC3)N(c3ccc(OC4CCN(CCO)CC4)cc3)C2=S)cc1C(F)(F)F` [Cpd 51, 5-[8-[4-[[1-(2-hydroxyethyl)-4-piperidyl]oxy]phenyl]-5-oxo-7-thioxo-6,8-diazaspiro[3.4]octan-6-yl]-3-(trifluoromethyl)pyridine-2-carbonitrile], in assay [1], the “LNCaP-AR-wt AG MAX % Stim” value is 0.8%. Moreover, the “LNCaP-AR-F876L AG MAX % Stim” value in assay [2] is recorded as 0.2%.

Take `N#Cc1ncc(N2C(=O)C3(CCC3)N(c3ccc(C(=O)NCc4ccccc4)c(F)c3)C2=S)cc1C(F)(F)F` [Cpd 36, N-benzyl-4-[6-[6-cyano-5-(trifluoromethyl)-3-pyridyl]-5-oxo-7-thioxo-6,8-diazaspiro[3.4]octan-8-yl]-2-fluoro-benzamide]: the “LNCaP-AR-wt AG MAX % Stim” value in assay [1] is given as 0.9%. Also, the “LNCaP-AR-F876L AG MAX % Stim” value in assay [2] was determined as 0.3%.

With `N#Cc1ncc(N2C(=O)C3(CCC3)N(c3ccc(C(=O)NCc4ccccc4Cl)c(F)c3)C2=S)cc1C(F)(F)F` [Cpd 31, N-[(2-chlorophenyl)methyl]-4-[6-[6-cyano-5-(trifluoromethyl)-3-pyridyl]-5-oxo-7-thioxo-6,8-diazaspiro[3.4]octan-8-yl]-2-fluoro-benzamide], in assay [1], the “LNCaP-AR-wt AG MAX % Stim” value is 0.2%. The “LNCaP-AR-F876L AG MAX % Stim” value in assay [2] came to 0.3%.

With `N#Cc1ncc(N2C(=O)C3(CCC3)N(c3ccc(C(=O)NCc4ccccn4)c(F)c3)C2=S)cc1C(F)(F)F` [Cpd 44, 4-[6-[6-cyano-5-(trifluoromethyl)-3-pyridyl]-5-oxo-7-thioxo-6,8-diazaspiro[3.4]octan-8-yl]-2-fluoro-N-(2-pyridylmethyl)benzamide], the “LNCaP-AR-wt AG MAX % Stim” value in assay [1] is recorded as −0.2%. In assay [2], the “LNCaP-AR-F876L AG MAX % Stim” value came out at 0.0%.

With `N#Cc1ncc(N2C(=O)C3(CCC3)N(c3ccccc3)C2=S)cc1C(F)(F)F` [Cpd 70, 5-(5-oxo-8-phenyl-7-thioxo-6,8-diazaspiro[3.4]octan-6-yl)-3-(trifluoromethyl)pyridine-2-carbonitrile], in assay [1], the “LNCaP-AR-wt AG MAX % Stim” value is given as 0.3%. Further, in assay [2], the “LNCaP-AR-F876L AG MAX % Stim” value amounted to 0.9%.

As to `N#Cc1ncc(N2C(=O)C3(CCC3)N(c3ccc4ccncc4c3)C2=S)cc1C(F)(F)F` [Cpd 7, 5-[8-(7-isoquinolyl)-5-oxo-7-thioxo-6,8-diazaspiro[3.4]octan-6-yl]-3-(trifluoromethyl)pyridine-2-carbonitrile], the “LNCaP-AR-wt AG MAX % Stim” value in assay [1] is −0.2%. Moreover, the “LNCaP-AR-F876L AG MAX % Stim” value in assay [2] is 0.0%.

As for `N#Cc1ncc(N2C(=O)C3(CCC3)N(c3ccc(C(=O)NCCCN4CCOCC4)c(F)c3)C2=S)cc1C(F)(F)F` [Cpd 72, 4-[6-[6-cyano-5-(trifluoromethyl)-3-pyridyl]-5-oxo-7-thioxo-6,8-diazaspiro[3.4]octan-8-yl]-2-fluoro-N-(3-morpholinopropyl)benzamide], the “LNCaP-AR-wt AG MAX % Stim” value in assay [1] turned out to be 0.3%. Moreover, the “LNCaP-AR-F876L AG MAX % Stim” value in assay [2] is listed as 0.6%.

As to `N#Cc1ncc(N2C(=O)C3(CCC3)N(c3cccc4ccccc34)C2=S)cc1C(F)(F)F` [Cpd 34, 5-[8-(1-naphthyl)-5-oxo-7-thioxo-6,8-diazaspiro[3.4]octan-6-yl]-3-(trifluoromethyl)pyridine-2-carbonitrile], the “LNCaP-AR-wt AG MAX % Stim” value in assay [1] is −0.1%. In assay [2], the “LNCaP-AR-F876L AG MAX % Stim” value is 0.2%.

With `N#Cc1ncc(N2C(=O)C3(CCC3)N(c3ccc(Oc4ccncn4)cc3)C2=S)cc1C(F)(F)F` [Cpd 71, 5-[5-oxo-8-(4-pyrimidin-4-yloxyphenyl)-7-thioxo-6,8-diazaspiro[3.4]octan-6-yl]-3-(trifluoromethyl)pyridine-2-carbonitrile], the “LNCaP-AR-wt AG MAX % Stim” value in assay [1] was determined as 0.5%. Besides, in assay [2], the “LNCaP-AR-F876L AG MAX % Stim” value was 0.9%.

For the compound `CCCNC(=O)c1ccc(N2C(=S)N(c3cnc(C#N)c(C(F)(F)F)c3)C(=O)C23CCC3)cc1F` [Cpd 68, 4-[6-[6-cyano-5-(trifluoromethyl)-3-pyridyl]-5-oxo-7-thioxo-6,8-diazaspiro[3.4]octan-8-yl]-2-fluoro-N-propyl-benzamide], the “LNCaP-AR-wt AG MAX % Stim” value in assay [1] was 0.2%. Moreover, in assay [2], the “LNCaP-AR-F876L AG MAX % Stim” value was found to be 0.9%.

With `CNC(=O)c1ccc(N2C(=S)N(c3cnc(C#N)c(C)c3)C(=O)C2(C)C)cc1F` [Cpd 12, 4-[3-(6-cyano-5-methyl-3-pyridyl)-5,5-dimethyl-4-oxo-2-thioxo-imidazolidin-1-yl]-2-fluoro-N-methyl-benzamide], the “LNCaP-AR-wt AG MAX % Stim” value in assay [1] worked out at 0.9%. For the same compound, the “LNCaP-AR-F876L AG MAX % Stim” value in assay [2] is on record as −0.3%.

For the compound `CN1CCC(Oc2ccc(N3C(=S)N(c4cnc(C#N)c(C(F)(F)F)c4)C(=O)C34CCC4)cc2F)CC1` [Cpd 28, 5-[8-[3-fluoro-4-[(1-methyl-4-piperidyl)oxy]phenyl]-5-oxo-7-thioxo-6,8-diazaspiro[3.4]octan-6-yl]-3-(trifluoromethyl)pyridine-2-carbonitrile], the “LNCaP-AR-wt AG MAX % Stim” value in assay [1] was −0.1%. The “LNCaP-AR-F876L AG MAX % Stim” value in assay [2] worked out at 0.0%.

Consider `Cc1cc(N2C(=O)C3(CCC3)N(c3ccc(C(=O)NC4CCOCC4)c(F)c3)C2=S)cnc1C#N` [Cpd 2, 4-[6-(6-cyano-5-methyl-3-pyridyl)-5-oxo-7-thioxo-6,8-diazaspiro[3.4]octan-8-yl]-2-fluoro-N-tetrahydropyran-4-yl-benzamide], for which the “LNCaP-AR-wt AG MAX % Stim” value in assay [1] worked out at 0.8%. Further, in assay [2], the “LNCaP-AR-F876L AG MAX % Stim” value is recorded as −0.4%.

With `Cc1ccc(NC(=O)c2ccc(N3C(=S)N(c4cnc(C#N)c(C)c4)C(=O)C34CCC4)cc2F)cn1` [Cpd 75, 4-[6-(6-cyano-5-methyl-3-pyridyl)-5-oxo-7-thioxo-6,8-diazaspiro[3.4]octan-8-yl]-2-fluoro-N-(6-methyl-3-pyridyl)benzamide], the “LNCaP-AR-wt AG MAX % Stim” value in assay [1] stood at 0.8%. Further, the “LNCaP-AR-F876L AG MAX % Stim” value in assay [2] stood at 0.8%.

Source of the values: patent publication US20190209539A1, “THIOHYDANTOIN ANDROGEN RECEPTOR ANTAGONISTS FOR THE TREATMENT OF CANCER” (Janssen Pharmaceutica NV, priority 2016, published 2019).
